Experimental data: patent US8969312B2, “Low side effect pharmaceutical composition containing antituberculosis drugs” (priority 2011, dated 2015)

Tests used:
[1] = molecular target: cytochrome P450 2E1 (CYP2E1) (Homo sapiens, UniProt P05181); test: CYP2E1 High Throughput Inhibitor Screening Kit, cDNA synthesized microsomal CYP2E1 (MFC to HFC); conditions: for Minimum Effective Dose: Table 3, minimum tested concentration (mg/L) × volume of human liver and intestine (3L)
Excerpt: CYP2E1 High Throughput Inhibitor Screening Kit (BD Bioscience, USA) was used to screen the cytochrome P450 (CYP2E1) inhibitors from 22 Chinese medicine guiding drugs and 10 excipients and microsomal cytochrome P450 (CYP2E1) was synthesized from cDNA (BD Bioscience, USA). The principle of the screening kit is to measure the percentage of CYP2E inhibition, after adding the test sample to substrate MFC (7-Methoxy-4-trifluoromethyl coumarin) and cytochrome P450 (CYP2E1), by measuring the synthesis of standard CYP2E1 metabolite (HFC, 7-Hydroxy-4-trifluoromethyl coumarin) and use control HFC as baseline.
a. 149 μl NADPH-Cofactor Mix and 1 μl 20 mM DDTC were added to the #1 well in a 96-well plate and mixed thoroughly,
b. Add 100 μl Cofactor/acetonitrile mix to #2 to #12 wells, and well #1 to #8 are positive control. Well #9 and 10 are control and well #11 and #12 are blank,
c. […] Preparation of Experimental Groups: a. […] Transfer 50 μl from well #1 and #2 and added to well #3 and mixed thoroughly (triplicate for each sample), 3. Initiation and Termination of the Reaction: a. The 96-well plate was incubated at 37° C. for […], b. 100 μl of Enzyme/Substrate Mix was added to every well and mixed thoroughly except the blank wells, c. The 96-well plate was incubated at 37° C. for 40 min, d. 75 μl Stop Solution was added to every well and mixed thoroughly, e. Immediately add 100 μl Enzyme/Substrate Mix to blank wells and mixed thoroughly, f. Measure with a Fluoroskan Ascent FL (Thermo Electron Corporation, Finland) with excitation at 405 nm and emission at 538 nm, 4. The fluorescence was transverse into CYP 2E1 metabolite standard (HFC) concentration (pmol) and the percentage (%) of CYP 2E1 inhibition was calculated using control as baseline by following equation: […]

amidase = test: Mouse liver microsomal amidase, isoniazid to isonicotinic acid; assay type: biochemical
Excerpt: Mouse liver microsomes were used as the source of amidase, and isoniazid was used as the amidase metabolism drugs. quantitative isoniazid was catalyzed into metabolites isonicotinic acid (INA) by amidase, and was used as the index for measurement of the amidase activity for establishment of the platform for screening in vitro amidase activity inhibitors. The HPLC system includes a Shimadzu the LC-LOAD pump, 1 Shimadzu system control and a Shimadzu autosampler (Shimadzu Scientific Instrument, Japan). A C18 column (particle size 5 μm, inner diameter of 50×4.6 mm, 25 cm) containing 70% methanol and 30% ammonium formate (50 mM, pH=2.5) of the mobile phase for HPLC separation, and the experimental steps are outlined as follows:
(2) An aliquot of 150 μL mouse liver microsomal solution was added to 100 μL isoniazid solution in 35 μL 67 mM potassium phosphate buffer solution ([…], pH=7) with a final concentration at 3 mM, and then mixed thoroughly with 15 μL amidase inhibitor (deionized water was added in the control group). (3) Incubation at 37° C. water bath for 30 minutes. (4) An aliquot of 300 μL acetonitrile (ACN) was added and mixed thoroughly, and incubated for 6 minutes. (5) An aliquot of 30 μL perchloric acid was then mixed and incubated for 6 minutes. (6) The mixture was centrifuged at 13000 g for 6 minutes. (7) After centrifugation, 100 μL of the supernatant was injected into HPLC. (8) Methanol ammonium formate (50 mM, pH=2.5)=70:30 (V/V) was selected as the mobile phase, and the flow rate was controlled at […] and detected at 270 nm UV. […] The amidase inhibition % was then calculated using the following formula: […]

[2] = molecular target: human liver microsomal cytochrome P450 2E1 (CYP2E1) (Homo sapiens, UniProt P05181); test: Human liver microsomal CYP2E1, chlorzoxazone 6-hydroxylation;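 further: chlorzoxazone added as substrate, 6-hydroxychlorzoxazone formation quantified by LC/MS/MS after 30 min at 37 °C with NADP+ regenerating system, compared against solvent control without test sample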
human liver microsomal cytochrome P450 2E1 (CYP2E1), sequence (P05181 whole entry): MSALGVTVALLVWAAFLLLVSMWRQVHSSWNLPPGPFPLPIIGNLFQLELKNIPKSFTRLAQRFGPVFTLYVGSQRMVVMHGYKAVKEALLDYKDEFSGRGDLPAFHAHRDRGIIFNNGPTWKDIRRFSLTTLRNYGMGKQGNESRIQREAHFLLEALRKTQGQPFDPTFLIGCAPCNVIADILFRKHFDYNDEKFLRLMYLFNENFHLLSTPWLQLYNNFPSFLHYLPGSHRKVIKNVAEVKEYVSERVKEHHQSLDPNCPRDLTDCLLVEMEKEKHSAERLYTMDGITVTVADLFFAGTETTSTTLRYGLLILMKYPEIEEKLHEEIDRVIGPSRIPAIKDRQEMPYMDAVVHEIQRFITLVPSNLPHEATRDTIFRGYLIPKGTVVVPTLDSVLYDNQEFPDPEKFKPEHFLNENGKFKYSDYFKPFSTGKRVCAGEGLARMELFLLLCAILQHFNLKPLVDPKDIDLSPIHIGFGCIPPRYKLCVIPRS

CYP2E1 = CYP2E1 (Homo sapiens, UniProt P05181); test: as above; conditions: human; for inhibition at 30 min, 16.5 µM / inhibition at 30 min, 33 µM / inhibition at 30 min, 66 µM / inhibition at 30 min, 0.08 % (w/v) / inhibition at 30 min, […] (w/v): human liver microsomes, pH 7.4, probe Chlorzoxazone; for inhibition at 30 min, 0.167 % (w/v): microsomes, pH 7.4
CYP2E1, sequence (P05181 whole entry): as above

[3] = Table 6, minimum tested concentration (mg/L) × volume of human liver and intestine (3 L)

cytochrome P450 2E1 (CYP2E1), sequence (P05181 whole entry): as above

Row | Compound | Amidase inhibition (amidase; 1 uM) | Amidase inhibition (amidase; 10 uM) | Amidase inhibition (amidase; 100 uM) | Minimum Effective Dose [2, 3] | other results
1 | Oc1cc(O)c2c(c1)O[C@H](c1ccc(O)c(O)c1)[C@@H](O)C2 [(+)-Catechin] | −2.1 ± 1.1% | −11.8 ± 20.2% | 1.3 ± 6.3% | – | Inhibition of CYP 2E1 ([1]; 16.5 μM): 41.53%; Inhibition of CYP 2E1 ([1]; 66 μM): 16.45%; Minimum Effective Dose [1]: 16 mg
2 | CCCOC(=O)c1ccc(O)cc1 [Propylparaben] | – | – | – | – | Minimum Effective Dose ([2]; Table 7): 9 mg; inhibition at 30 min, 16.5 µM (CYP2E1): -4.1 ± 1.2%; inhibition at 30 min, 33 µM (CYP2E1): -17.2 ± 2.4%; inhibition at 30 min, 66 µM (CYP2E1): -27.3 ± 3.7%
3 | O.OC[C@H]1O[C@@H](O[C@H]2[C@H](O)[C@@H](O)C(O)O[C@@H]2CO)[C@H](O)[C@@H](O)[C@H]1O (stereo partly shown) [Lactose monohydrate] | – | – | – | – | Minimum Effective Dose ([2]; Table 7): 18 mg; inhibition at 30 min, 16.5 µM (CYP2E1): 7.8 ± 2.2%; inhibition at 30 min, 33 µM (CYP2E1): 3.9 ± 2.3%; inhibition at 30 min, 66 µM (CYP2E1): 8.7 ± 3.8%
4 | O=c1cc(-c2ccc(O)cc2)oc2cc(O)c([C@@H]3O[C@H](CO)[C@@H](O)[C@H](O)[C@H]3O)c(O)c12 [Isovitexin] | 13.9 ± 2.3% | 5.8 ± 2.7% | 1.1 ± 7.1% | 24 mg | –
5 | O=c1cc(-c2ccc(O)c(O)c2)oc2cc(O[C@@H]3O[C@H](CO)[C@@H](O)[C@H](O)[C@H]3O)cc(O)c12 [Luteolin-7-Glucoside] | 3.2 ± 0.8% | 8.7 ± 1.9% | 12.9 ± 3.1% | 24 mg | Inhibition of CYP 2E1 ([2]; 16.5 μM): 42.96 ± 5.10%; Inhibition of CYP 2E1 ([2]; 33 μM): 55.87 ± 0.67%; Inhibition of CYP 2E1 ([2]; 66 μM): 60.26 ± 1.11%
6 | C=CC(=C)CCC=C(C)C [β-Myrcene] | 1.7 ± 1.3% | 6.6 ± 4.1% | 5.8 ± 2.7% | 8 mg | –
7 | O=C(O)CC(O)(CC(=O)O)C(=O)O [Citric acid] | – | – | – | – | Minimum Effective Dose ([2]; Table 7): 10 mg; inhibition at 30 min, 16.5 µM (CYP2E1): 9.9 ± 3.1%; inhibition at 30 min, 33 µM (CYP2E1): 15.5%; inhibition at 30 min, 66 µM (CYP2E1): 20.5 ± 1.8%
8 | COc1ccc(-c2cc(=O)c3c(O)cc(O[C@@H]4O[C@H](CO[C@@H]5O[C@@H](C)[C@H](O)[C@@H](O)[C@H]5O)[C@@H](O)[C@H](O)[C@H]4O)cc3o2)cc1O [Diosmin] | 0.3 ± 8.1% | −0.7 ± 7.7% | 1.6 ± 5.1% | 33 mg | –
9 | O=C(O)/C=C/c1ccccc1 [trans-Cinnamic acid] | −11.9 ± 2.3% | −1.4 ± 0.6% | 12.6 ± 1.7% | – | Minimum Effective Dose [1]: 8 mg
10 | COC(=O)c1ccc(O)cc1 [Methylparaben] | – | – | – | – | Minimum Effective Dose ([2]; Table 7): 8 mg; inhibition at 30 min, 16.5 µM (CYP2E1): 4.6 ± 3.2%; inhibition at 30 min, 33 µM (CYP2E1): -14 ± 2.2%; inhibition at 30 min, 66 µM (CYP2E1): -21.5 ± 2%
11 | C=C(C)C1CC=C(C)CC1 (single isomer, unassigned; (+)) [(+)-Limonene] | 5.1 ± 0.4% | 3.2 ± 8.6% | 6.2 ± 3.8% | – | Inhibition of CYP 2E1 ([2]; 16.5 μM): 13.77 ± 1.96%; Inhibition of CYP 2E1 ([2]; 33 μM): 38.05 ± 1.95%; Inhibition of CYP 2E1 ([2]; 66 μM): 63.64 ± 2.74%
12 | O=c1cc(-c2ccc(O)cc2)oc2cc(O)cc(O)c12 [Apigenin] | −10.2 ± 20.3% | 13.2 ± 3.4% | – | 15 mg | –
13 | CCCCCCCCCCCC1=C(O)C(=O)C=C(O)C1=O [Embelin] | – | – | – | – | Minimum Effective Dose [1]: 16 mg
14 | CC1=CC(=O)NS(=O)(=O)O1 [Acesulfame K] | – | – | – | – | Minimum Effective Dose ([2]; Table 7): 10 mg; inhibition at 30 min, 0.08 % (w/v) (CYP2E1): 7.1 ± 2.3%; inhibition at 30 min, […] (w/v) (CYP2E1): 3.9 ± 2.7%; inhibition at 30 min, 0.167 % (w/v) (CYP2E1): 14.5 ± 1.9%; Amidase inhibition (amidase; 0.0005%): −12.4 ± 27.4%; Amidase inhibition (amidase; 0.005%): −167.2 ± 167.3%; Amidase inhibition (amidase; 0.05%): 24.3 ± 4.9%
15 | O=c1ccc2ccc(O)cc2o1 [Umbelliferone] | 24.1 ± 11.6% | −1.0 ± 13.2% | 33.5 ± 8.2% | – | Minimum Effective Dose [1]: 9 mg
16 | O=C(O)[C@H]1O[C@@H](Oc2cc3oc(-c4ccccc4)cc(=O)c3c(O)c2O)[C@H](O)[C@@H](O)[C@@H]1O [Baicalin] | 2.1 ± 7.5% | 15.2 ± 6.3% | 34.8 ± 10.2% | 24 mg | –
17 | Oc1cc(O)c2c(c1)O[C@H](c1ccc(O)c(O)c1)[C@H](O)C2 [(−)-Epicatechin] | −25.8 ± 6.2% | −4.8 ± 10.5% | 3.6 ± 4.3% | – | Inhibition of CYP 2E1 ([1]; 16.5 μM): 18.27%; Inhibition of CYP 2E1 ([1]; 66 μM): 2.57%; Minimum Effective Dose [1]: 16 mg
18 | O=C(CCc1ccc(O)cc1)c1c(O)cc(O)cc1O[C@@H]1O[C@H](CO)[C@@H](O)[C@H](O)[C@H]1O [Phloridzin] | – | – | – | – | Minimum Effective Dose [1]: 24 mg
19 | O=c1c(O)c(-c2ccc(O)cc2O)oc2cc(O)cc(O)c12 [Morin] | −16.6 ± 4.8% | 9.1 ± 1.7% | 59.8 ± 5.1% | 16 mg | –
20 | CC1CCC(C(C)C)C(O)C1 (stereo not shown) [Menthol] | – | – | – | – | Minimum Effective Dose ([2]; Table 7): 8 mg; inhibition at 30 min, 0.08 % (w/v) (CYP2E1): 20.8 ± 2.1%; inhibition at 30 min, […] (w/v) (CYP2E1): 10.5 ± 0.4%; inhibition at 30 min, 0.167 % (w/v) (CYP2E1): 30.8 ± 0.3%
21 | O=c1cc(-c2ccccc2)oc2cc(O)c(O)c(O)c12 [Baicalein] | 2.8 ± 15.1% | 5.7 ± 2.6% | 15.6 ± 1.0% | 15 mg | –
22 | C/C=C/C=C/C(=O)O [Sorbic acid] | – | – | – | – | Minimum Effective Dose ([2]; Table 7): 6 mg; inhibition at 30 min, 16.5 µM (CYP2E1): 8.4 ± 1.6%; inhibition at 30 min, 33 µM (CYP2E1): 10.9 ± 2.1%; inhibition at 30 min, 66 µM (CYP2E1): 14.8 ± 0.1%
23 | O=c1cc(-c2ccccc2)oc2ccc3ccccc3c12 [β-naphthoflavone] | – | – | – | – | Inhibition of CYP 2E1 ([1]; 16.5 μM): 6.52%; Inhibition of CYP 2E1 ([1]; 66 μM): 15.40%; Minimum Effective Dose [1]: 15 mg
24 | O=c1c(-c2ccc(O)cc2)coc2cc(O)ccc12 [Daidzein] | −12.1 ± 6.3% | 1.0 ± 7.4% | 16.2 ± 12.6% | 14 mg | –
25 | COc1ccc(-c2oc3cc(O)cc(O)c3c(=O)c2O)cc1O [Tamarixetin] | 3.5 ± 10.5% | 27.9 ± 6.3% | 28.9 ± 4.2% | 17 mg | –
26 | O=c1c(-c2ccc(O)cc2)coc2cc(O)cc(O)c12 [Genistein] | −2.1 ± 46.2% | 1.8 ± 7.6% | 5.8 ± 6.8% | 15 mg | –
27 | O=c1c(O)c(-c2ccc(O)c(O)c2)oc2cc(O)cc(O)c12 [Quercetin] | 48.1 ± 15.0% | 62.3 ± 4.4% | 75.5 ± 2.2% | 16 mg | –
28 | COc1cc(-c2oc3cc(O)cc(O)c3c(=O)c2O)ccc1O [Isorhamnetin] | 13.8 ± 1.0% | 20.0 ± 4.6% | 31.3 ± 1.3% | 14 mg | –
29 | O=c1cc(-c2ccc(O)c(O)c2)oc2cc(O)cc(O)c12 [Luteolin] | 6.1 ± 9.1% | 23.0 ± 6.0% | 47.5 ± 6.2% | 16 mg | –
30 | CCCCCCCCCCCCOS(=O)(=O)[O-].[Na+] [Sodium lauryl sulfate] | – | – | – | – | Minimum Effective Dose ([2]; Table 7): 14 mg; inhibition at 30 min, 16.5 µM (CYP2E1): 4.6 ± 1.1%; inhibition at 30 min, 33 µM (CYP2E1): 6.4 ± 0.9%; inhibition at 30 min, 66 µM (CYP2E1): 4.9 ± 1.6%; Amidase inhibition (amidase; 0.0005%): 9.6 ± 5.0%; Amidase inhibition (amidase; 0.005%): 19.3 ± 2.7%; Amidase inhibition (amidase; 0.05%): 66.1 ± 2.1%
